Assay results published in patent US5439930A, “Biologically active n-acylprolydipeptides having antiamnestic, antihypoxic and anorexigenic effects” (Russian-American Institute for New Drug Development, priority 1992, dated 1995).
Where a SMILES comes first, the peptide text is derived from it. The star is where a group is joined. PhAc = O=C(Cc1ccccc1)*

Key:
lobectomized rats [1] = test: Passive avoidance after frontal lobectomy; format: in vivo; conditions: 9th day, 0.1 mg/kg for 9 days
Description: (§1) The impairment of learning and memory was achieved also by frontal lobectomy, which was performed after passive avoidance or active avoidance learning. Compound I (0.1 mg/kg) was administered beginning from the first post-operational day and lasting for 9 days. The testing was performed at 4th and 9th days. […] The frontal lobectomy has as a consequence the decrease of the latency of the entering of the dark compartment; Compound I restored the passive avoidance reaction (Table 8).

outbred albino male mice = test: Acute habituation of locomotor activity (Optovarimex); format: in vivo
Description: The effect of Compound I on acute habituation of locomotor activity was estimated according to diminution of locomotions during 30 minutes. Experiments were performed on outbred albino male mice (18-22 g) placed in groups of 10 animals in registration cage (Optovarimex, Colomb., USA).

[2] = system: phenazepam withdrawn male albino rats; test: Threshold of aggressive behavior during phenazepam withdrawal; format: in vivo; conditions: 0.5 mg/kg i.p.; 24 hours after the last administration of phenazepam
Description: (§2) The influence of Compound I on withdrawal syndrome caused by the interruption of chronic administration of benzodiazepine tranquilizer phenazepam (T. A. Voronina et al., In Fenazepam; A. V. Bogatsky, Ed.; Naukova dumka Publishers: Kiev, 1982; pp. 67-169) was studied in experiments on male albino rats weighing 190-200 g at the beginning and 300-350 g at the end of the experiment.
(§3) Phenazepam (2 mg/kg intraperitoneally) or saline (control group of rats) were given once daily for 57 days. The withdrawal syndrome occurred 24-72 hours after the last injection. The withdrawal syndrome in rats consisted in "anxiogenic-like" state aggressiveness and accelerated development of kindled seizures caused by pentylentetrazol. Compound I was administered to the withdrawn rats in doses of 0.5 mg/kg intraperitoneally 15 minutes prior to testing.
The threshold of the aggressive behavior was determined in the experiment on the rats (R. Tedeshi et al., J. Pharmacol. Exp. Ther., 125, 28-34 (1959)). The paired rats were placed on the electrified floor; the strength of the current, which provokes the fighting, was registered.

[3] = system: rat's offspring damaged by prenatal hypoxia; test: Active avoidance learning of offspring after prenatal hypoxia; format: in vivo, rats
Description: (§4) The cognitive impairment in the rat's offspring was provoked by prenatal alcoholization or prenatal hypoxia. Prenatal alcoholization was achieved by peroral administration of 5 g/kg/day (25% solution) ethanol to pregnant female rats during whole pregnancy. To achieve prenatal hypoxia the rats on the 15th day of pregnancy were placed into hypobaric barometric chamber (the "elevating" up 8500 m altitude; exposition for 2 hours).
(§5) The treatment of the offspring was performed from 8th day to 20th day. Compound I was administered in the dose of 0.1 mg/kg/day subcutaneously. The testing was performed on two-month old rats.
It has been established that both kinds of damage (alcoholization, hypoxia) caused learning disorders in active avoidance test. Early postnatal administration of Compound I restored learning activity (Table 9).

[4] = system: phenazepam withdrawn male albino rats; test: Conflict situation test during phenazepam withdrawal; format: in vivo; conditions: 0.5 mg/kg i.p. 15 minutes prior to testing; 24 hours after phenazepam withdrawal
Description: as §2, §3
The conflict situation test was used to reveal the "anxiety" of rats (J. R. Vogel et al., Psychopharmacologia, 21, 1-7 (1971)). This experiment involved previous training of water deprivated rats to drink water from a trough. Next day electrical stimulation was given by a 0.5 mA electric current through the trough. A conflict situation was created by clashing of the two different reflexes (drinking and self-defense).
This behavior in the conflict situation test can be considered as "anxiogenic-like" one. […]

lobectomized rats [5] = test: Active avoidance after frontal lobectomy; format: in vivo; conditions: 0.1 mg/kg daily
Description: as §1
Compound I increased the percentage of the animals performing the active avoidance reaction and the coefficient of the preserving (Table 8).

outbred albino mice = test: Hypobaric hypoxia survival (barometric chamber, 11,000 m); format: in vivo; conditions: 0.5 mg/kg 15 minutes before hypoxia, 1 hour exposition
Description: The protective effect of Compound I in hypoxia was assessed using the barometric chamber by "elevating" of the outbred albino mice (18-22 g) to the altitude of 11,000 m at a speed of 1000 m/min. After 1 hour exposition the percentage of surviving mice after 0.9% saline pretreatment was 15%.

[6] = system: undertraining of the passive avoidance reflex, rats; test: Passive avoidance with undertraining, different regimes of administration; format: in vivo; conditions: 0.5 mg/kg i.p.
[7] = system: rat's offspring after prenatal alcoholization; test: Open field locomotor activity and habituation of offspring after prenatal alcoholization; format: in vivo, rats
Description: as §4, §5
Chronic postnatal administration of Compound I restored the normal course of the habituation (Table 10).

[8] = system: damaged stable active avoidance reaction, rats; test: Conditional active avoidance reflex after damage (simultaneous sound and footshock); format: in vivo
From the text: The influence of Compound I on the active avoidance learning was studied in shuttle-box test (Ugo Basile, Italy). The conditioned reflex of active avoidance had been developed for 5 days with 50 daily trials for each rat. The learning task consisted in the rats' avoiding of the electric shock applied through the cage floor directly after sound. Rats could avoid the shock by moving into another compartment of the cage, but only while the sound was present (3 sec.).
In other experiments, stable active avoidance reaction was damaged by simultaneously switching of sound and electrical footshock for 5 trials. Compound I prevented the impairment of avoidance (Table 6).

24-month Wistar rats = test: Passive avoidance retention in aged rats; format: in vivo
Description: The influence of Compound I on age-related mental decline was studied in experiments on 24-month Wistar rats. The substance was administered chronically in the dose of 0.1 mg/kg/day during 24 days, intraperitoneally before the testing and 14 days during testing.
Chronic administration of Compound I facilitated the retention tested 24 hours and especially 14 days after learning in passive avoidance test (Table 11). It is evident from these experiments that Compound I is able to improve amnestic function in the old rats.

## CCOC(=O)CNC(=O)[C@@H]1CCCN1C(=O)Cc1ccccc1 [Compound I, N-phenacetyl-L-prolylglycine ethyl ester] (PhAc-Pro-Gly-OEt)
Lobectomized rats [1]
  Passive avoidance test (latency, sec): 141.2 s
Outbred albino male mice; 0.05 mg/kg, 15 min before registration
  Habituation index (motor activity last 5 min / first 5 min of recording): 30%
Outbred albino male mice; 0.1 mg/kg
  Habituation index: 10%
Outbred albino male mice; 0.5 mg/kg
  Habituation index: 15%
Outbred albino male mice; 2.5 mg/kg
  Habituation index: 25%
Outbred albino male mice; 5.0 mg/kg
  Habituation index: 27%
Outbred albino male mice; dose range 0.05-5.0 mg/kg
  Initial locomotor activity: without changing of initial locomotor activity
[2]
  Aggression Threshold (mA): 0.92 ± 0.1 mA
[3]; day 1 of learning, 0.1 mg/kg/day s.c. from 8th to 20th day
  Rats with reflex of active avoidance: 0%
[3]; day 2 of learning
  Rats with reflex of active avoidance: 0%
[3]; day 3 of learning
  Rats with reflex of active avoidance: 25%
[3]; day 4 of learning
  Rats with reflex of active avoidance: 68%
[3]; day 5 of learning
  Rats with reflex of active avoidance: 88%
[4]
  The amount of the Punishment Response: 48.40 ± 12.39
Lobectomized rats [5]; 4th day
  %% of avoiding rats: 42.8%
  Active avoidance test - coeff. of preserving: 28.1%
Lobectomized rats [5]; 9th day
  %% of avoiding rats: 57.1%
  Active avoidance test - coeff. of preserving: 38.1%
Outbred albino mice
  Percentage of surviving mice: 43.7%
[6]
  Mnestic activity (Ma), administration 15 min. before retrieval: 32%
  Mnestic activity (Ma), administration 15 min. before trial: 23%
  Mnestic activity (Ma), administration immediately after trial: 14.0%
[7]; day 1 of observation, chronic postnatal administration
  Number of horizontal movements: 8.2
[7]; day 5 of observation
  Number of horizontal movements: 3.7
[7]; open field
  Coefficient of Habituation: 0.45
[8]; after damage, 1-5th trials
  Percentage of avoidances during 5 trials: 86.7
[8]; after damage, 6-10th trials
  Percentage of avoidances during 5 trials: 88.9 ± 4.8
[8]; after damage, 11-15th trials
  Percentage of avoidances during 5 trials: 97.8
[8]; before damage
  Percentage of avoidances during 5 trials: 88.9 ± 4.8
24-month Wistar rats; 24 hours after learning
  Passive avoidance test (latency, sec): 128 s
24-month Wistar rats; 14 days after learning
  Passive avoidance test (latency, sec): 132 s
